{"source": "patent US9895335B2", "about": "“Ophthalmic compositions containing a nitric oxide donor” (NICOX SCIENCE IRELAND, priority 2013, dated 2018)", "tested_on": "hypertonic saline-induced IOP increase in rabbits", "experiment": "Intraocular pressure (IOP) lowering activity in hypertonic saline-induced IOP increase in rabbits", "type": "in vivo, New Zealand White rabbits", "design": "unit not given here", "conditions": "topical, versus vehicle and versus basal IOP before hypertonic saline injection", "protocol": "Intraocular Pressure (IOP) Lowering Activity in Hypertonic Saline-Induced IOP Increase in Rabbits\nThe Intraocular pressure (TOP) lowering activity of compound (Ia) (Example 1) was assessed in an animal model of elevated IOP.\nAdults male New Zealand White rabbits weighting 1.8-2.0 Kg were used in the experiments.\nIOP was measured using a Tono-Pen XL prior to hypertonic saline injection (basal) and at 30, 60, 120 and 240 min thereafter. Vehicle (5% cremophor-EL; 0.3% DMSO; 0.2 mg/ml bac in PBS pH 6.0,) or compound (Ia) dissolved in the vehicle at different concentrations (0.1%, 0.3% and 1%) was instilled as eye drops immediately after hypertonic saline injection. Eyes were randomly assigned to different treatment groups. Vehicle or compound (Ia) was directly instilled into the conjunctiva pocket at the desired doses. One drop of 0.4% oxybuprocaine hydrochloride (Novesine, Sandoz) was instilled in each eye immediately before each set of pressure measurements.\nResults are reported in Table in which the ocular hypotensive activity of compound (Ia) at different is expressed as IOP change (at 60 and 120 minutes following topical administration) versus vehicle and versus IOP at basal before hypertonic saline injection."}
{"smiles": "CCCC(=O)OCCCCO[N+](=O)[O-]", "note": "[Compound (Ia), 4-Nitrooxybutan-1-Ol Butyrate]", "values": [{"measurement": "IOP change", "setting": "0.1% eye drops, 60 min after administration", "result": "−10.3 ± 0.3"}, {"measurement": "IOP change", "setting": "0.1% eye drops, 120 min after administration", "result": "−5 ± 1.8"}, {"measurement": "IOP change", "setting": "0.3% eye drops, 60 min after administration", "result": "−16.5 ± 3.8"}, {"measurement": "IOP change", "setting": "0.3% eye drops, 120 min after administration", "result": "−9 ± 2.1"}, {"measurement": "IOP change", "setting": "1% eye drops, 60 min after administration", "result": "−21.1 ± 4.5"}, {"measurement": "IOP change", "setting": "1% eye drops, 120 min after administration", "result": "−15.1 ± 2.3"}]}
